Read-outs that look alike come from different tables or passages of the source.
Key:
Assay type in all cases: cell-based
168 GPCRs [1] = biological target: T1, 168 GPCRs (Homo sapiens, UniProt P43119); conditions: PTGIR
T1 construct: host or cells: PathHunter cell lines

168 GPCRs [2] = biological target: T2, 168 GPCRs (Homo sapiens, UniProt Q969V1)
T2 construct: host or cells: PathHunter cell lines

168 GPCRs [3] = biological target: T3, 168 GPCRs (Homo sapiens, UniProt P47898); conditions: HTR5A
T3 construct: host or cells: PathHunter cell lines

168 GPCRs [4] = biological target: T4, 168 GPCRs (Homo sapiens, UniProt P61073)
T4 construct: host or cells: PathHunter cell lines

168 GPCRs [5] = biological target: T5, 168 GPCRs (Homo sapiens, UniProt P32302)
T5 construct: host or cells: PathHunter cell lines
T5 sequence (P32302 1-372): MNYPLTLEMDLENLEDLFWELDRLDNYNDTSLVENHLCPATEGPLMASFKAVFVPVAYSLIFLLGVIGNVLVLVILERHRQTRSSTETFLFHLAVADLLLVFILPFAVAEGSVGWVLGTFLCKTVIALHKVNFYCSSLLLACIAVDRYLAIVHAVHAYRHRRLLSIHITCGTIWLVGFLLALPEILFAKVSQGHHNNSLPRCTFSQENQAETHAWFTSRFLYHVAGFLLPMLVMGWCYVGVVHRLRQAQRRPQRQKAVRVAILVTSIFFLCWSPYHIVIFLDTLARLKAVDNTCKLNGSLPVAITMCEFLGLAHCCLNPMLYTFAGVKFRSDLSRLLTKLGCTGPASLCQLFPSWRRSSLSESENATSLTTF

168 GPCRs [6] = biological target: T6, 168 GPCRs (Homo sapiens, UniProt O43613)
T6 construct: host or cells: PathHunter cell lines
T6 sequence (O43613 1-425): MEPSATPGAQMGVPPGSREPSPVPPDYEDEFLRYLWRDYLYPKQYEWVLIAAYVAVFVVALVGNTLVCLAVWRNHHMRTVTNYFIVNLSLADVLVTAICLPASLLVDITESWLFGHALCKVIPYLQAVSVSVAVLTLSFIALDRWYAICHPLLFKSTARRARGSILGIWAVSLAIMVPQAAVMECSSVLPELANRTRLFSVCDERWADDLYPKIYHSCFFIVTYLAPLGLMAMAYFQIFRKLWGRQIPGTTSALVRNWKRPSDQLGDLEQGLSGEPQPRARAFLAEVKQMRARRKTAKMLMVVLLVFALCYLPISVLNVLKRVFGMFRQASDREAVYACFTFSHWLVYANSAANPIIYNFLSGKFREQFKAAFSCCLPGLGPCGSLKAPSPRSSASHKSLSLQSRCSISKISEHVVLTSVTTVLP

168 GPCRs [7] = biological target: T7, 168 GPCRs (Homo sapiens, UniProt P32249)
T7 construct: host or cells: PathHunter cell lines

168 GPCRs [8] = biological target: T8, 168 GPCRs (Homo sapiens, UniProt P41587); conditions: VIPR2
T8 construct: host or cells: PathHunter cell lines
T8 sequence (P41587 24-438): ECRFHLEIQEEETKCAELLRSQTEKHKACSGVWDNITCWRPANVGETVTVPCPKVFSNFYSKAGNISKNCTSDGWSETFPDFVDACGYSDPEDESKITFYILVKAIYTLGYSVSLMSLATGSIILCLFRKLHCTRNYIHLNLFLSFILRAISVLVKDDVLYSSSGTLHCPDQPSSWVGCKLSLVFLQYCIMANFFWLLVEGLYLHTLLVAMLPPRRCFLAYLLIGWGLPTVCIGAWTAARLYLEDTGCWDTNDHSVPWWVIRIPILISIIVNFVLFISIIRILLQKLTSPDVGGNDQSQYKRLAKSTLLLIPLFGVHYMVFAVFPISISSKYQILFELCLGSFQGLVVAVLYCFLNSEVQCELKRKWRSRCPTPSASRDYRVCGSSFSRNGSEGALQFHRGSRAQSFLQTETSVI

168 GPCRs [9] = biological target: T9, 168 GPCRs (Homo sapiens, UniProt Q8TDV5)
T9 construct: host or cells: PathHunter cell lines
T9 sequence (Q8TDV5 1-335): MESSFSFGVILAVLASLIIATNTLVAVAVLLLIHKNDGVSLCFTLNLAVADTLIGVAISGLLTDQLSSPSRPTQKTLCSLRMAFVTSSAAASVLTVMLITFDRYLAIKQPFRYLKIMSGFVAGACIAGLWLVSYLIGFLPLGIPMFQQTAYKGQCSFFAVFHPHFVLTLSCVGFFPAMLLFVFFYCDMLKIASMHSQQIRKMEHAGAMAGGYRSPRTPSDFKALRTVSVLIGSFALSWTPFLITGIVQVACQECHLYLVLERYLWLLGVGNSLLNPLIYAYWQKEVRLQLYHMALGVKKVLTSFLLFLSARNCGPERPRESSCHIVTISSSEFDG

T2 sequence (Q969V1 whole entry): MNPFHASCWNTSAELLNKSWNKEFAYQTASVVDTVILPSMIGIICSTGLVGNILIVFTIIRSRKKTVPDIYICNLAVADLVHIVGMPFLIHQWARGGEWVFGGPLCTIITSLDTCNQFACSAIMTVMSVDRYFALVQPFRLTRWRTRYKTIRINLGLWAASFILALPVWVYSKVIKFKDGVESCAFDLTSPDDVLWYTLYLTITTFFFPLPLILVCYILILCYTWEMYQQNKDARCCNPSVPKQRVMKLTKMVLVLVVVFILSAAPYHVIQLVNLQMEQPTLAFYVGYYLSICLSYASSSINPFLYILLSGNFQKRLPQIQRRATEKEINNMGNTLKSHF
T1 sequence (P43119 whole entry): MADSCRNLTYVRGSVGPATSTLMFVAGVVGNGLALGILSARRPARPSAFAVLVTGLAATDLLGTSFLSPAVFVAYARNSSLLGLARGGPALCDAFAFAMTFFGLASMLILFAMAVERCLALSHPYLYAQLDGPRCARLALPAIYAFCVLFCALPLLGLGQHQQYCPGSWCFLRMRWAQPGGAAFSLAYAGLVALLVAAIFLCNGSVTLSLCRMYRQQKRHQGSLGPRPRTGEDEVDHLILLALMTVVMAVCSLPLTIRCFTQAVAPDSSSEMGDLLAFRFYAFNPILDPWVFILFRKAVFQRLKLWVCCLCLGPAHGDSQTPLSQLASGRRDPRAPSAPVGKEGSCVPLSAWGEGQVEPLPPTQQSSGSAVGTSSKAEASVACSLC
T3 sequence (P47898 whole entry): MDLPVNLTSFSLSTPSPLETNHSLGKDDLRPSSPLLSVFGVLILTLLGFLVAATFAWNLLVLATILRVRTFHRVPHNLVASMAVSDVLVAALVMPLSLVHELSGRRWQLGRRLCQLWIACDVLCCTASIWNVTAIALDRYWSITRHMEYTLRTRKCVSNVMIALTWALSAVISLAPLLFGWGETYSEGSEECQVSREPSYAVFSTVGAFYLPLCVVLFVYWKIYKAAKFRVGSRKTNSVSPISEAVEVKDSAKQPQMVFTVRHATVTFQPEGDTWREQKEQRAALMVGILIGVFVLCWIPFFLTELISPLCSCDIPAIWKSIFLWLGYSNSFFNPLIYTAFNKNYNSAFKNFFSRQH
T7 sequence (P32249 whole entry): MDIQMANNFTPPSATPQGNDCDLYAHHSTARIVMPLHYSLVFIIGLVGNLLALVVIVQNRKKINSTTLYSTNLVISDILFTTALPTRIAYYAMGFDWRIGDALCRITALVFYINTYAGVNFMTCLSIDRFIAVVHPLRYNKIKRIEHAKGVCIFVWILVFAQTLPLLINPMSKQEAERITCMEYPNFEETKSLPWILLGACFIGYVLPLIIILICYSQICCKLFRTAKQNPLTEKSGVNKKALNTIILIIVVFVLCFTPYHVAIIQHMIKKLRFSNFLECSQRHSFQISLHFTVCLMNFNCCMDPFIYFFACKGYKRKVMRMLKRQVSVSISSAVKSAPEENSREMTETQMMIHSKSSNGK
T4 sequence (P61073 whole entry): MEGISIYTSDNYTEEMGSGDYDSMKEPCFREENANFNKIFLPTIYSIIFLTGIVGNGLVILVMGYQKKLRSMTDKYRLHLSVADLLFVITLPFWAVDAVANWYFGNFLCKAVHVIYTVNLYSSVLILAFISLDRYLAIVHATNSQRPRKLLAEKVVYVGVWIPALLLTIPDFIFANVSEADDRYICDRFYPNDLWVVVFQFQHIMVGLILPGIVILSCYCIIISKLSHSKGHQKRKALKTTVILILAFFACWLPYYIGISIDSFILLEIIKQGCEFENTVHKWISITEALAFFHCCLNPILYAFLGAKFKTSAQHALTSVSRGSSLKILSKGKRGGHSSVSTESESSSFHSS

Row | Structure (SMILES) | % Agonist Activity (168 GPCRs [1]; Conc 1 uM) [%] | % Antagonist Activity (168 GPCRs [1]; Conc 1 uM) [%] | % Agonist Activity (168 GPCRs [1]; Conc 10 uM) [%] | % Antagonist Activity (168 GPCRs [1]; Conc 10 uM) [%] | % Agonist Activity (168 GPCRs [2]; MCHR2, 1 uM) [%] | % Antagonist Activity (168 GPCRs [2]; MCHR2, 1 uM) [%] | % Agonist Activity (168 GPCRs [2]; MCHR2, 10 uM) [%] | % Antagonist Activity (168 GPCRs [2]; MCHR2, 10 uM) [%] | % Antagonist Activity (168 GPCRs [3]; 1 uM) [%] | % Antagonist Activity (168 GPCRs [3]; 10 uM) [%] | % Agonist Activity (168 GPCRs [4]; CXCR4, 1 uM) [%] | % Antagonist Activity (168 GPCRs [4]; CXCR4, 1 uM) [%] | % Agonist Activity (168 GPCRs [4]; CXCR4, 10 uM) [%] | % Antagonist Activity (168 GPCRs [4]; CXCR4, 10 uM) [%] | % Agonist Activity (168 GPCRs [5]; CXCR5, 1 uM) [%] | % Antagonist Activity (168 GPCRs [5]; CXCR5, 1 uM) [%] | % Agonist Activity (168 GPCRs [5]; CXCR5, 10 uM) [%] | % Antagonist Activity (168 GPCRs [5]; CXCR5, 10 uM) [%] | % Agonist Activity (168 GPCRs [6]; HCRTR1, 1 uM) [%] | % Antagonist Activity (168 GPCRs [6]; HCRTR1, 1 uM) [%] | further results
1 | CNC(C)Cc1ccc2c(c1)OCO2 (centres unmarked) [MDMA, 3,4-Methylenedioxy methamphetamine, reference compound] | 2.3 | 18.8 | 8.6 | 22.7 | 0.8 | -25 | 0.3 | -17.3 | -16.4 | -6.4 | 3.1 | 19.6 | 2.5 | 14.6 | 2.7 | -4.4 | 1.4 | 3.2 | -0.2 | 8.6 | % Agonist Activity (168 GPCRs [6]; HCRTR1, 10 uM): -0.1%; % Antagonist Activity (168 GPCRs [6]; HCRTR1, 10 uM): 15%; % Agonist Activity (168 GPCRs [7]; EBI2, 1 uM): 0.6%; % Antagonist Activity (168 GPCRs [7]; EBI2, 1 uM): 4.4%; % Agonist Activity (168 GPCRs [7]; EBI2, 10 uM): -0.4%; % Antagonist Activity (168 GPCRs [7]; EBI2, 10 uM): 7.9%; % Agonist Activity (168 GPCRs [8]; Conc 1 uM): -1.6%; % Antagonist Activity (168 GPCRs [8]; Conc 1 uM): -1.1%; % Agonist Activity (168 GPCRs [8]; Conc 10 uM): -0.7%; % Antagonist Activity (168 GPCRs [8]; Conc 10 uM): 3.1%; % Agonist Activity (168 GPCRs [9]; GPR119, 1 uM): 17.1%; % Antagonist Activity (168 GPCRs [9]; GPR119, 1 uM): 2.7%; % Agonist Activity (168 GPCRs [9]; GPR119, 10 uM): 10.2%; % Antagonist Activity (168 GPCRs [9]; GPR119, 10 uM): 3.8%
2 | CNC(C)C(=O)c1ccc2c(c1)OCO2 (centres unmarked) [methylone] | -4.4 | 12.4 | -2.3 | -21.5 | -1.5 | 2 | -0.7 | -4.5 | 9.8 | 1.6 | -4 | 10.7 | 7 | -4.2 | 2.5 | -4.3 | 1.4 | -15.1 | -0.1 | 2.3 | % Agonist Activity (168 GPCRs [6]; HCRTR1, 10 uM): -0.1%; % Antagonist Activity (168 GPCRs [6]; HCRTR1, 10 uM): 1.2%; % Agonist Activity (168 GPCRs [7]; EBI2, 1 uM): 0.5%; % Antagonist Activity (168 GPCRs [7]; EBI2, 1 uM): 0.6%; % Agonist Activity (168 GPCRs [7]; EBI2, 10 uM): -0.1%; % Antagonist Activity (168 GPCRs [7]; EBI2, 10 uM): -2.6%; % Agonist Activity (168 GPCRs [8]; Conc 1 uM): -0.4%; % Antagonist Activity (168 GPCRs [8]; Conc 1 uM): -1.5%; % Agonist Activity (168 GPCRs [8]; Conc 10 uM): -0.3%; % Antagonist Activity (168 GPCRs [8]; Conc 10 uM): -2.6%; % Agonist Activity (168 GPCRs [9]; GPR119, 1 uM): -5.8%; % Antagonist Activity (168 GPCRs [9]; GPR119, 1 uM): 17.1%; % Agonist Activity (168 GPCRs [9]; GPR119, 10 uM): -2.2%; % Antagonist Activity (168 GPCRs [9]; GPR119, 10 uM): -8.8%
